Tests used:
Assay type in all cases: in vivo, C57BL/6 mice
CD3+ T cells = assay: Immunohistochemical staining of renal section for CD3+ (T cell infiltration) in UUO model; details: UUO mice; 30 mg/kg daily i.p.
Description: (§1) Male 8-week-old C57BL/6 mice were purchased form National Laboratory Animal Breeding and Research Center (Taipei, Taiwan) and maintained at the animal center of the National Defense Medical Center (Taipei, Taiwan). All animal experiments were performed with the approval of the Institutional Animal Care and Use Committee of The National Defense Medical Center, Taiwan, and were consistent with the National Institutes of Health Guide for the Care and Use of Laboratory Animals.
(§2) Mice were first anesthetized with sodium pentobarbital (50 mg/kg, i.p.). After a left flank incision was taken, the left ureter was exposed, ligated with 6-0 silk sutures at two points, and cut between the two ligatures. Lastly, the peritoneal membrane and skin were sutured. Sham surgery was performed as control by following all steps of UUO-procedure except ligation and cut of ureter. (Xiao et al. Adenosine A2A receptor: a target for regulating renal interstitial fibrosis in obstructive nephropathy, PLoS One. 2013 Apr. 9; 8 (4):e60173).
(§3) Briefly, all mice received preoperative analgesia (subcutaneous injection of […] buprenorphin (Temgesic, Shering-Plough)) and the right ureter was subsequently ligated with 6.0 silk through a small abdominal incision under 2.0% isoflurane-induced anesthesia. […]

α-SMA = assay: Immunohistochemical staining of renal section for α-SMA in UUO model; details: UUO mice; 30 mg/kg daily i.p.
Description: as §1, §2, §3

[1] = tested on: proliferating cell nuclear antigen (PCNA); assay: Immunohistochemical staining of renal section for PCNA in UUO model; details: UUO mice; 30 mg/kg daily i.p.
Description: as §1, §2, §3

splenocytes = assay: B cells and T cells activation in splenocytes by flow cytometry in UUO model; details: within three groups (sham, disease control, LCHK168)
Description: as §1, §2, §3

TNF-α = assay: ELISA of TNF-α in pelvis urine in UUO model
Description: as §1
(§4) Mice were first anesthetized with sodium pentobarbital (50 mg/kg, i.p.). After a left flank incision was taken, the left ureter was exposed, ligated with 6-0 silk sutures at two points, and cut between the two ligatures. Lastly, the peritoneal membrane and skin were sutured. Sham surgery was performed as control by following all steps of UUO-procedure except ligation and cut of ureter. (Xiao et al. Adenosine A2A receptor: a target for regulating renal interstitial fibrosis in obstructive nephropathy, PLoS One. 2013 Apr. 9; 8 (4):e60173). […]
(§5) Urine samples are collected from calyx and pelvis by 29G insulin syringe. […] MCP-1, TNF-α, and IL-1β are then detected by ELISA following instruction manual (eBioscience and R&D). […]

UUO kidney = assay: Renal histopathology evaluation by H&E staining in UUO model; details: 30 mg/kg daily i.p.
Description: as §1, §2
Briefly, all mice received preoperative analgesia (subcutaneous injection of […] buprenorphin (Temgesic, Shering-Plough)) and the right ureter was subsequently ligated with 6.0 silk through a small abdominal incision under 2.0% isoflurane-induced anesthesia. The abdomen was closed in two layers and mice were allowed to recover from surgery for 12 hours at 28° C. in a ventilated stove. Mice were sacrificed 7 or 14 days after surgery (Pulskens, et al. Nlrp3 prevents early renal interstitial edema and vascular permeability in unilateral ureteral obstruction, PLoS One. 2014 Jan. 15; 9 (1):e85775).
Ginsenoside M1, 20-O-β-D-glucopyranosyl-20(S)-protopanaxadiol (named LCHK168 below), was prepared by methods known in the art, such as those described in Taiwan Patent Application No. 094116005 (I280982) and U.S. Pat. No. 7,932,057. LCHK168 was dissolved in 3% cremophore (Sigma-Aldrich). Starting from one day before UUO operation, mice were given a daily dose of LCHK168 (30 mg/kg) by intraperitoneal injection till sacrifice.
Paraffin-embedded kidney tissues were sectioned and stained with Masson's trichrome and hematoxylin and eosin (H&E) using standard protocols. For histopathology, the tissues were fixed in 10% buffered formalin and embedded in paraffin, and then sections (3 μm) were prepared and stained with hematoxylin and eosin (H&E).
Sections all are examed after mounting. The methods of semi-quantitative analysis are according to the degree of inflammation and fibrosis on renal tubulointerstitial whereas and randomly selected 20 fields randomly for scoring. […]

MCP-1 = assay: ELISA of MCP-1 in pelvis urine in UUO model
Description: as §1, §4, §5

[2] = tested on: F4/80+ monocytes/macrophages; assay: Immunohistochemical staining of renal section for F4/80 (macrophage infiltration) in UUO model; details: UUO mice; 30 mg/kg daily i.p.
Description: as §1, §2, §3

NF-κB = assay: Immunohistochemical staining of renal section for NF-κB in UUO model; details: UUO mice; 30 mg/kg daily i.p.
Description: as §1, §2, §3

[3] = tested on: fibrosis tissue in the UUO interstitial area; assay: Masson's trichrome staining of renal section in UUO model; details: UUO mice; 30 mg/kg daily i.p.
Description: as §1, §2, §3

collagen IV = assay: Immunohistochemical staining of renal section for collagen IV in UUO model; details: UUO mice; 30 mg/kg daily i.p.
Description: as §1, §2, §3

bone marrow cells = assay: Stem cells and hematopoietic stem cell activation in bone marrow cells by flow cytometry in UUO model; details: within three groups (sham, disease control, LCHK168)
Description: as §1, §2, §3

collagen III = assay: Immunohistochemical staining of renal section for collagen III in UUO model; details: UUO mice; 30 mg/kg daily i.p.
Description: as §1, §2, §3

[4] = tested on: apoptotic cells in UUO renal interstitial area; assay: TUNEL staining of renal section for apoptotic cells in UUO model; details: UUO mice; 30 mg/kg daily i.p.
Description: as §1, §2, §3

IL-1β = assay: ELISA of IL-1β in pelvis urine in UUO model
Description: as §1, §4, §5

[5] = day 7, compare to normal control group
[6] = 7 days of UUO, vs disease control mice

Compound: CC(C)=CCC[C@](C)(O[C@@H]1O[C@H](CO)[C@@H](O)[C@H](O)[C@H]1O)[C@H]1CC[C@]2(C)[C@@H]1[C@H](O)C[C@@H]1[C@@]3(C)CC[C@H](O)C(C)(C)[C@@H]3CC[C@]12C [LCHK168, 20-O-β-D-glucopyranosyl-20(S)-protopanaxadiol]
- expression of CD3+ (T cells) in renal section (CD3+ T cells): decreased
- α-SMA expression in UUO interstitial area (α-SMA): decreased
- PCNA expression in renal section [1]: decrease
- percentage of CD3+CD69+ cells in splenocytes (splenocytes): no significant change
- percentage of CD19+CD69+ cells in splenocytes (splenocytes): no significant change
- TNF-α in renal pelvis urine (TNF-α; [5]): higher
- TNF-α in renal pelvis urine (TNF-α; day 14, compare to UUO group): significant decreased
- mononuclear leukocyte infiltration in the interstitial area (H&E) (UUO kidney; [6]): inhibited
- tubular dilation in the interstitial area (H&E) (UUO kidney; [6]): inhibited
- fibrosis (H&E) (UUO kidney; 14 days of UUO): significantly inhibited
- tubular atrophy (H&E) (UUO kidney; 14 days of UUO): significantly inhibited
- MCP-1 in renal pelvis urine (MCP-1; [5]): higher
- MCP-1 in renal pelvis urine (MCP-1; day 14, compare to UUO group): significant decreased
- expression of F4/80 (macrophage) in renal section [2]: decreased
- NF-κB expression in renal section (NF-κB): inhibited
- fibrosis tissue in the UUO interstitial area (Masson's trichrom staining) [3]: decreased
- collagen IV expression in UUO interstitial area (collagen IV): decreased
- percentage of CD34+ (stem cell) cells in bone marrow cells (bone marrow cells): no significant change
- percentage of Stem-cell antigen-1-positive cells (hematopoietic stem cell) in bone marrow cells (bone marrow cells): no significant change
- collagen III expression in UUO interstitial area (collagen III): decreased
- apoptotic cells (TUNNEL staining) in UUO renal interstitial area [4]: decrease
- IL-1β in renal pelvis urine (IL-1β; [5]): higher
- IL-1β in renal pelvis urine (IL-1β; day 14, compare to UUO group): significant decreased
